Each block holds one molecule with its values, some of them ahead of it.
Legend:
[1] = biological target: human Nox4 (Homo sapiens (Human), UniProt Q9NPH5); assay: Nox4 assay using stably transfected HEK cells; type: cell-based
Description: (§1) Nox2 assay in human neutrophils: Human neutrophils were obtained from healthy volunteers (REF). LO12 luminescence was quantified as above. Nox4 assay using stably transfected HEK cell: HEK cells stably transfected with human Nox4 were incubated with varying concentrations of compound along with LO12.
Nox4 produces hydrogen peroxide rather than superoxide; under these conditions LO12 luminesces only after the addition of horseradish peroxidase to initiate the reaction.

[2] = biological target: xanthine oxidase (Homo sapiens (Human), UniProt P47989); assay: Assay control: xanthine oxidase (XO) replaces Nox2 as the source of ROS, LO12 luminescence; type: biochemical; settings: Table 2, xanthine oxidase control
Chain of xanthine oxidase (P47989 whole entry, species assumed): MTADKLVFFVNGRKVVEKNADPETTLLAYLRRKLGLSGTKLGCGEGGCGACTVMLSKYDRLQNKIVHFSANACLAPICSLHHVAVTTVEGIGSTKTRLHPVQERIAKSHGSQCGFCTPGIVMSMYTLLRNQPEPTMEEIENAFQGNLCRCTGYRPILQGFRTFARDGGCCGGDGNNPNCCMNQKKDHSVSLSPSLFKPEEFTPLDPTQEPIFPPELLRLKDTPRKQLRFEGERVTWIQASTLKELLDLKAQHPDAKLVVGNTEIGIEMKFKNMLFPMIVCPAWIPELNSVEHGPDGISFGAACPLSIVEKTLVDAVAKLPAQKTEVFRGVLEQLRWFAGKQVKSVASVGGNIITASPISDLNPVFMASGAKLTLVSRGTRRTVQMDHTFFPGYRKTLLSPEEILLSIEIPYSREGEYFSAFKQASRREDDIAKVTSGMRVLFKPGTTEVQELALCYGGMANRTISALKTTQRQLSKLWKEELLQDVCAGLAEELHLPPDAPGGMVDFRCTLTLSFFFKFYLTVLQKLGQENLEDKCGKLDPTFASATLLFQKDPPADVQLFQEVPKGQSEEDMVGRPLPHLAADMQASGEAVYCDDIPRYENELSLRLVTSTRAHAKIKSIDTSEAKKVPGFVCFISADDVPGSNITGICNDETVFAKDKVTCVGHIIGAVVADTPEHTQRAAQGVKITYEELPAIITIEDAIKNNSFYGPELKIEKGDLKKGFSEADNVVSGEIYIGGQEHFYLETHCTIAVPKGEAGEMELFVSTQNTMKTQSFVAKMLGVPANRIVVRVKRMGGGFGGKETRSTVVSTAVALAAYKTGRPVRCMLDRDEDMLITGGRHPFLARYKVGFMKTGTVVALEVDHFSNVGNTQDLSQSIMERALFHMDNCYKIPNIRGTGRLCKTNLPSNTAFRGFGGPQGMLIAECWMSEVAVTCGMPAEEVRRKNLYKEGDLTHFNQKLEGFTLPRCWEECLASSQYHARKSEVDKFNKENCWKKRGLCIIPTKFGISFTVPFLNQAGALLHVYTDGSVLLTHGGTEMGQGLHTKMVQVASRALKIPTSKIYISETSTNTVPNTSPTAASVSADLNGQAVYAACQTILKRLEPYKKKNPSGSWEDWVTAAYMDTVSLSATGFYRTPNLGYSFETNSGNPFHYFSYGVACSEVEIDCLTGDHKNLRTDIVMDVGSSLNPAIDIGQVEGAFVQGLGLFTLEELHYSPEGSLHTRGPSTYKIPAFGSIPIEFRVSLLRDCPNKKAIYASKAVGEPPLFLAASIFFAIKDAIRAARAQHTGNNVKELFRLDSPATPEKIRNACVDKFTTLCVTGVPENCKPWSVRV
Description: Assay controls. To rule out interference with either Nox2 or Nox4 luminescence assays, two approaches are used. In one, xanthine oxidase replaces the Nox2 enzymatic system as the source of ROS in the Nox2/LO12 assay. Xanthine is added to initiate the reaction and LO12 luminescence is recorded. In the other, exogenous H2O2 is supplied in place of the Nox4 expressing H2O2-generating cells and luminescence is recorded.

[3] = Stability in liver S9-fractions, dog; type: in vitro ADME; settings: read-out: Stability in liver S9-fractions (t ½) Dog (converted)
[4] = Solubility; type: physicochemical
[5] = biological target: T1, Nox2 (Homo sapiens (Human), UniProt P04839); assay: Nox2 activity assay for primary screening (cell free, human neutrophil plasma membranes, LO12 luminescence); type: biochemical
Description: Nox2 activity assay for primary screening: Plasma membranes were prepared from human neutrophils, which express large amounts of Nox2, stored at −80 C until use. See Curnutte et al., J. Biol. Chem. 1987, 262, 6450-6452, hereby incorporated by reference. Membranes are mixed with recombinant, purified cytosolic regulatory proteins (p67Np47N chimera, and a constitutively active mutant of Rac, Rac1(Q61)) and FAD, along with varying concentrations of compound, and LO12, which emits light when it reacts with ROS. The reaction is initiated by addition of NADPH and SDS (an artificial activator of Nox2).
Target sequence in this assay (P04839 2-570): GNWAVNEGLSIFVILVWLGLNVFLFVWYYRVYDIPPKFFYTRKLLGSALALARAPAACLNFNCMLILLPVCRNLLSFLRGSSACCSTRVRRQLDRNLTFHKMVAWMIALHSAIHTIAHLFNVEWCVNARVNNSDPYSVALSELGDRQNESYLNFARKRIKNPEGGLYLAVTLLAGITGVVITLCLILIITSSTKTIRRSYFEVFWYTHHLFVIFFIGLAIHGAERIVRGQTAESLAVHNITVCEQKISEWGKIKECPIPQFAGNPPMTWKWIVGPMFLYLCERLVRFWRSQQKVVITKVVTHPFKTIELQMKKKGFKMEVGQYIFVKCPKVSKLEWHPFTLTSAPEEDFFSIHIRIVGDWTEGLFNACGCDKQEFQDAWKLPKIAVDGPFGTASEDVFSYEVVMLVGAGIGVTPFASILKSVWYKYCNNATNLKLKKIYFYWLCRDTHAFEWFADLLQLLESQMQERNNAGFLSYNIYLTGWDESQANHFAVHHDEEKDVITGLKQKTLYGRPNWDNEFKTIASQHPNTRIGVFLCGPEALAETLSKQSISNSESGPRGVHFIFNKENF

[6] = Stability in liver S9-fractions, human; type: in vitro ADME; settings: read-out: Stability in liver S9-fractions (t ½) Human (converted)
[7] = Stability in liver S9-fractions, mouse; type: in vitro ADME; settings: read-out: Stability in liver S9-fractions (t ½) Mouse (converted)
[8] = biological target: Nox1 (Homo sapiens (Human), UniProt Q9Y5S8); assay: Nox1 inhibition; type: biochemical; settings: Table 3
Chain of Nox1 (Q9Y5S8 whole entry, species assumed): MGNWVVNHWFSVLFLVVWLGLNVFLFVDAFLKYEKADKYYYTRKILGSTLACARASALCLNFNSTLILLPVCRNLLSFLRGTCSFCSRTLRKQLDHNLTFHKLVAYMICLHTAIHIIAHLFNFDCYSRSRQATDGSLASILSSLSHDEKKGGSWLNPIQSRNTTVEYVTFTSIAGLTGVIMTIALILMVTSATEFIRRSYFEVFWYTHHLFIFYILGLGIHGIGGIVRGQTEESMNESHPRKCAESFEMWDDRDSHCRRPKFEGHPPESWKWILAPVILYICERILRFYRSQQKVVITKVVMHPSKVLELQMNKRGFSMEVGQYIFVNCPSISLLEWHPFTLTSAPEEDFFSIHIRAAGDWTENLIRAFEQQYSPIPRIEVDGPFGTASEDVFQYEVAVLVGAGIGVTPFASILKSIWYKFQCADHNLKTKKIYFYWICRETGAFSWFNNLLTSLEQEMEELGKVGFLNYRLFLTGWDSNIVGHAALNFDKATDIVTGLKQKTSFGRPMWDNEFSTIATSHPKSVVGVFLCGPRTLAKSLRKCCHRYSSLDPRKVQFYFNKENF
Chain of Nox1 (P13498 2-195 partner, species assumed): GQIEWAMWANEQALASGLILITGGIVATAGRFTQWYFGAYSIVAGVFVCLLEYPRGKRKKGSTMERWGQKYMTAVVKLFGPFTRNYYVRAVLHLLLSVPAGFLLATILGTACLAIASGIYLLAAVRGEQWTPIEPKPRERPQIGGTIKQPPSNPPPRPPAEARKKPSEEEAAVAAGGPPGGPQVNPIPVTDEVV

[9] = biological target: T1, Nox2; assay: Nox2 assay in human neutrophils (PMN), LO12 luminescence; type: cell-based
Description: as §1
Target sequence in this assay (P04839 whole entry, looked up): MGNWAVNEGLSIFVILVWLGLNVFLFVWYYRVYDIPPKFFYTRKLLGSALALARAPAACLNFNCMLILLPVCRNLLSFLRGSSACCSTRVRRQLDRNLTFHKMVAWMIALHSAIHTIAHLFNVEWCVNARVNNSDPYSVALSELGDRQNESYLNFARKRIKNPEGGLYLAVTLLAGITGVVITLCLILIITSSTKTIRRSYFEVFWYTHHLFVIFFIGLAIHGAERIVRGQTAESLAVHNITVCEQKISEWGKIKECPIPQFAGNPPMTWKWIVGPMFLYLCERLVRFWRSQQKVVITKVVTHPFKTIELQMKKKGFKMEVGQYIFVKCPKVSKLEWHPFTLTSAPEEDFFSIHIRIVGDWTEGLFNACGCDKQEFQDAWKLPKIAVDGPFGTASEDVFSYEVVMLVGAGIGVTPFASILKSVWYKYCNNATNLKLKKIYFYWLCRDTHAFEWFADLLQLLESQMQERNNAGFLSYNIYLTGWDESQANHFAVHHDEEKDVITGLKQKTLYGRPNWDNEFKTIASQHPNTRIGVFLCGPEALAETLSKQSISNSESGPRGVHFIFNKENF
Target sequence in this assay (P13498 whole entry partner, looked up): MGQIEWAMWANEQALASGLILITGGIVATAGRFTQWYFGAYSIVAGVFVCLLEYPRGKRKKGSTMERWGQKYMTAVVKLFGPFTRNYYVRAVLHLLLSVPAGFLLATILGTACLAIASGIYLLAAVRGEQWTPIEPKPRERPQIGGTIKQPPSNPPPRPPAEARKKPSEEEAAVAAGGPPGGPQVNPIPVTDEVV

[10] = Table 3, read-out: Nox2 (Cell Free)
[11] = Table 3, human neutrophils, read-out: Nox2 (PMN)

Chain of human Nox4 (Q9NPH5 whole entry): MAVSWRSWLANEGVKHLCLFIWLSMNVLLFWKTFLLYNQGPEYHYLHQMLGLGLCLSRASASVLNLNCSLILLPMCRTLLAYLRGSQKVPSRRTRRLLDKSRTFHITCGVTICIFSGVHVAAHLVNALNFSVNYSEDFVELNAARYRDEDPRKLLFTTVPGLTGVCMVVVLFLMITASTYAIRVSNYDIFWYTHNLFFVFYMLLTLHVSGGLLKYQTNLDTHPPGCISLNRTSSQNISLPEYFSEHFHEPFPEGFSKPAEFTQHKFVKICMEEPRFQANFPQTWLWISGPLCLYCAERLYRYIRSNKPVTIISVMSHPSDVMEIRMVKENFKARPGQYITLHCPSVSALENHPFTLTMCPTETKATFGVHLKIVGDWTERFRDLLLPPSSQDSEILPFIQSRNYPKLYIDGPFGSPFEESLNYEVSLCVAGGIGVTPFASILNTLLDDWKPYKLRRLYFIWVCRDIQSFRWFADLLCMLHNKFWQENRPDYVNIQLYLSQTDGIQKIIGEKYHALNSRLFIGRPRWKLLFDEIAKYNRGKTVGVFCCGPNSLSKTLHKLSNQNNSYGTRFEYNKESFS
Chain of human Nox4 (P13498 2-195 partner): as the sequence (P13498 2-195 partner, species assumed) above

SMILES: COc1ccc(N2CCN(C(=O)c3cc4cc(C(C)=O)ccc4[nH]3)CC2)cc1 [TG6-161, 1-(2-(4-(4-methoxyphenyl)piperazine-1-carbonyl)-1H-indol-5-yl)ethanone]
selectivity for Nox2 compared with Nox4 [1]: ≥ 100 fold
IC50 ([1]; using two different assays): 20000 to 30000 nM
IC50 [2]: > 20000 nM
half-life [3]: 2 h
solubility [4]: < 25 µM
IC50 ([5]; Table 2, read-out: IC50 Nox2): 400 nM
IC50 [5, 10]: 300 nM
IC50 ([5]; read-out: IC50, Nox2 cell free system): 200 to 300 nM
half-life [6]: 0.75 h
half-life [7]: 3 h
IC50 [8]: 600 nM
IC50 [9, 11]: 200 nM
IC50 ([9]; read-out: IC50, ROS production in human neutrophils): 200 to 300 nM

SMILES: COc1ccc(N2CCN(C(=O)c3cc4cc(F)ccc4[nH]3)CC2)cc1 [TG6-179-1]
IC50 ([5]; Table 2, read-out: IC50 Nox2): 5000 nM

SMILES: COc1ccc(N2CCN(C(=O)c3cc4cc(OC)ccc4[nH]3)CC2)cc1 [TG6-179-2]
IC50 ([5]; Table 2, read-out: IC50 Nox2): 500 nM

SMILES: COc1ccc(N2CCN(C(=O)c3nc4cc(F)ccc4[nH]3)CC2)cc1 [TG6-179-3, (5-fluoro-1H-benzo[d]imidazol-2-yl)(4-(4-methoxyphenyl)piperazin-1-yl)methanone]
IC50 [2]: > 20000 nM
half-life [3]: 4 h
solubility [4]: < 25 µM
IC50 ([5]; Table 2, read-out: IC50 Nox2): 700 nM
IC50 [5, 10]: 1000 nM
half-life [6]: 1 h
half-life [7]: 5 h
IC50 [8]: 600 nM
IC50 [9, 11]: 400 nM

SMILES: COc1ccc(N2CCN(C(=O)c3cc4cc(OC)c(OC)cc4[nH]3)CC2)cc1 [TG6-181]
IC50 [2]: > 20000 nM
IC50 ([5]; Table 2, read-out: IC50 Nox2): 800 nM

SMILES: COc1ccc(N2CCN(C(=O)c3[nH]c4ccc(C(C)=O)cc4c3C)CC2)cc1 [TG6-190]
IC50 ([5]; Table 2, read-out: IC50 Nox2): 1000 nM

SMILES: COc1ccc(N2CCN(C(=O)c3cnc4ccc(F)cc4c3O)CC2)cc1 [TG6-191]
IC50 ([5]; Table 2, read-out: IC50 Nox2): 1500 nM

SMILES: COc1ccc(N2CCN(C(=O)c3cnc4c(F)cccc4c3O)CC2)cc1 [TG6-192]
IC50 Nox2 ([5]; Table 2): Not active

SMILES: COc1ccc(N2CCN(C(=O)c3cc4cc(O)ccc4[nH]3)CC2)cc1 [TG6-199]
IC50 [2]: < 100 nM
IC50 ([5]; Table 2, read-out: IC50 Nox2): 500 nM

SMILES: COc1ccc(N2CCN(C(=O)c3[nH]c4ccc(F)cc4c3C)CC2)cc1 [TG6-200]
IC50 ([5]; Table 2, read-out: IC50 Nox2): 700 nM

Results, then the molecule that gave them:

IC50 [2]: > 20000 nM
IC50 Nox2 ([5]; Table 2): Not active
SMILES: CCc1ccc2[nH]c(C(=O)N3CCN(c4ccc(OC)cc4)CC3)cc2c1 [TG6-202]

inhibition at 0.3 µM [5]: 30%
SMILES: COc1ccc(N2CCN(C(=O)c3cc4cc(Br)ccc4[nH]3)CC2)cc1 [TG6-203]

IC50 [2]: 200 nM
IC50 ([5]; Table 2, read-out: IC50 Nox2): 1500 nM
SMILES: O=C(c1cc2cc(O)ccc2[nH]1)N1CCN(c2ccc(OC(F)(F)F)cc2)CC1 [TG6-205-2]

IC50 Nox2 ([5]; Table 2): Not active
SMILES: O=C(c1nc2cc(F)ccc2[nH]1)N1CCN(c2ccc(OC(F)(F)F)cc2)CC1 [TG6-206]

inhibition at 2 µM [5]: 60%
SMILES: COc1ccc(N2CCN(C(=O)c3[nH]c4ccc(OC)cc4c3NC(C)=O)CC2)cc1 [TG6-208]

inhibition at 2 µM [5]: 25%
SMILES: O=C(c1cc2cc([N+](=O)[O-])ccc2[nH]1)N1CCN(c2ccc(OC(F)(F)F)cc2)CC1 [TG6-209]

inhibition at 2.5 µM [5]: 40%
SMILES: COc1ccc(N2CCN(C(=O)[C@H]3Cc4ccccc4N3)CC2)cc1 [TG6-214]

inhibition at 6 µM [5]: 40%
SMILES: COc1ccc(N2CCN(C(=O)c3cc4cc(S(C)(=O)=O)ccc4[nH]3)CC2)cc1 [TG6-218]

IC50 [2]: > 20000 nM
IC50 ([5]; Table 2, read-out: IC50 Nox2): 300 nM
SMILES: COC(=O)c1ccc2[nH]c(C(=O)N3CCN(c4ccc(OC)cc4)CC3)cc2c1 [TG6-222]

Source: patent publication US9428478B2, “Piperazine derivatives, compositions, and uses related thereto” (Emory University, priority 2011, dated 2016)
